Assay results: patent publication US20260055077A1, “PROTEIN DEGRADATION AGENT” (SUZHOU KINTOR PHARMACEUTICALS, INC., priority 2022, published 2026)

Columns and labels:
Type in all cases: cell-based
HL60 cells = assay: Anti-proliferation ability of compounds on HL60 cells (CellTiter-Glo); conditions: Homo sapiens, HL-60, 72 h, incubated 3 days, CTG luminescence, IC50 calculated by XLfit
Experimental: • I. Anti-proliferation ability of compounds on HL60 cells • Activity test methods: • 1. Cell plating • HL60 cells in the logarithmic growth phase were counted and plated evenly in a 96-well transparent bottom white plate at 20000 cells per well and […] per well. • 2. Drug addition to cells • A certain amount of the compounds was weighed and diluted with DMSO to a 10 mM stock solution. The culture mediums corresponding to the cells were taken, and the drugs were diluted to the concentration required by the test, shaken gently and mixed evenly. 50 μl of the gradient dilution of the diluted compound was added to each well of the plated cells, and 50 μl of 0.1% DMSO was added to the control group. The plate was shaken gently, mixed evenly and incubated in a cell culture incubator for 3 days. • 3. CTG detection • 3.1 The CellTiter-Glo™ (CTG) reagent was taken in advance from the −20° C. refrigerator and equilibrated to room temperature in the dark. • 3.2 The 96-well plate was taken out and inspected under a microscope for growth situation. • 3.3 The bottom of the 96-well plate was tagged with white paper, and then the plate was wrapped with tin foil paper, shaken at 37° C. at 300 r for 10 mina and mixed evenly. • 3.4 50 ul of CTG detection reagent was added to each well, Luminescence signal was detected using a microplate reader, and the inhibition rate was calculated. IC50 values of the compounds were calculated by XLfit software to evaluate the proliferation inhibitory activity on 11160 cells.

GSPT1 = target: T1, GSPT1 (Homo sapiens, UniProt P15170); assay: Protein degradation experiment (Western blot), GSPT1 in HL60 cells; conditions: 6 h of drug treatment, FIG. 1, at lower concentration (about 3 μm to 10 nmn)
T1 construct: endogenous in cells; host or cells: HL60 (human acute promyelocytic leukemia cells)
Experimental: (§1) Cell culture conditions: The cells in the embodiments of the invention were purchased from Shanghai Cell Bank, Chinese Academy of Sciences. Human acute promyelocytic leukemia cells (HL60 cells) were cultured in RPMI-1640 (meilunbio, MA0215)^+20% FBS(manufacturer: Bi, product number: 04-001-1ACS)^+1% penicillin/streptomycin (manufacturer: Hyclone, product number: SH40003.01). The cell culture conditions were 5% CO2 and […]. When the cell coverage reached about 80%, the cells were passaged at a ratio of 1:3.
(§2) 2. Cell drug treatment and protein extraction 2.1 Cell treatment
(§3) The designated cells in the exponential growth phase were digested and plated into a 6-well plate at 1 10^6 cells per well. […]
(§4) By using the BCA protein concentration determination kit (from Thermo Fisher, Cat. No. 23225), the BSA standard determination solution and the supernatant in 2.2 to be tested (the supernatant can be diluted and then tested) were prepared according to the table 2 below. […] The plate was placed at 60′C for 10 min, and then the absorbance at 562 nim was detected. After the reading was recorded, a standard curve was plotted using concentration gradients of the standards, and the absorbance of the samples was substituted to calculate the protein concentration of the samples. […]

c-Myc = target: T2, c-Myc (Homo sapiens, UniProt P01106); assay: Protein degradation experiment (Western blot), c-Myc in HL60 cells; conditions: 6 h of drug treatment, FIG. 1, at lower concentration (about 3 μm to 10 nmn)
T2 construct: endogenous in cells; host or cells: HL60 (human acute promyelocytic leukemia cells)
Experimental: as §1, §2, §3, §4

T2 sequence (P01106 whole entry): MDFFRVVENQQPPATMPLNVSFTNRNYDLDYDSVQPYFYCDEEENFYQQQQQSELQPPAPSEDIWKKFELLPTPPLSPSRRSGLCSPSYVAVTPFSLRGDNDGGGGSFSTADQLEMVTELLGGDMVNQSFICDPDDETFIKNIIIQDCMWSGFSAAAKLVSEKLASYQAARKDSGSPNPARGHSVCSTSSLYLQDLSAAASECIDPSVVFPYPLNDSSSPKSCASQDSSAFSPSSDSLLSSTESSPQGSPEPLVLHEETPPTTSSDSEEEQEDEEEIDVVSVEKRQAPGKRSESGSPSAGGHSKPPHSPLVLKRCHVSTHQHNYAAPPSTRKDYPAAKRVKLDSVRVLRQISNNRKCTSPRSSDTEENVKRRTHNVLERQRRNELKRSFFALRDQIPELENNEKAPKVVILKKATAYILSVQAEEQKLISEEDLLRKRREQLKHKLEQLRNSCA
T1 sequence (P15170 whole entry): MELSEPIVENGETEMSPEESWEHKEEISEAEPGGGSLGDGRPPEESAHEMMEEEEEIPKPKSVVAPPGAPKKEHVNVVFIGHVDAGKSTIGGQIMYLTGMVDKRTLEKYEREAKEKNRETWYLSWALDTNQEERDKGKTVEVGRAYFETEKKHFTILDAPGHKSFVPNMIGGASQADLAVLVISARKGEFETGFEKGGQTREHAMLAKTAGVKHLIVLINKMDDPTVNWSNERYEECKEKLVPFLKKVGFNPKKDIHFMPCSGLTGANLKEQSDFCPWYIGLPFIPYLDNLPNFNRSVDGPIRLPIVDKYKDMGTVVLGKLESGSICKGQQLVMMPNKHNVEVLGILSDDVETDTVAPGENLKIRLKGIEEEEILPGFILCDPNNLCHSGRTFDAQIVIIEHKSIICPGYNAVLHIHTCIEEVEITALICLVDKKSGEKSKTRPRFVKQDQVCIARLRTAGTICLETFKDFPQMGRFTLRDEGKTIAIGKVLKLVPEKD

| IC50 (HL60 cells) [nM] | degradation of GSPT1 protein in HL60 cells (GSPT1) | degradation of e-Myc (c-Myc) protein in HL60 cells (c-Myc) | SMILES |
| --- | --- | --- | --- |
| 1.03 ± 0.19 |  |  | Cc1ccc(N2CCN(Cc3ccc(C(=O)NCc4ccc5c(c4)CN(C4CCC(=O)NC4=O)C5=O)cc3)C(CO)C2)cc1Cl (stereo not shown) [KT-022] |
| 9.9 ± 3 |  |  | CN(CCc1ccccc1)Cc1ccc(C(=O)NCc2ccc3c(c2)CN(C2CCC(=O)NC2=O)C3=O)c(O)c1 (stereo not shown) [KT-034] |
| 2.19 ± 1.5 |  |  | O=C(Cn1c2ccccc2c2cccnc21)NCc1ccc(CNC(=O)c2ccc3c(c2)CN(C2CCC(=O)NC2=O)C3=O)c(OCCO)c1 (stereo not shown) [KT-006] |
| 23 ± 3 |  |  | O=C1CCC(N2Cc3cc(NC(=O)CC4CCN(c5ncc(Br)cc5CO)CC4)ccc3C2=O)C(=O)N1 (stereo not shown) [KT-026] |
| 34 ± 7 |  |  | O=C1CCC(N2Cc3cc(C(=O)NCc4ccc(CN(CCc5cccc6ccccc56)C(=O)CS)cc4)ccc3C2=O)C(=O)N1 (stereo not shown) [KT-042] |
| 1.36 ± 0.67 |  |  | Cc1ccc(N2CCN(Cc3ccc(C(=O)NCc4ccc5c(c4)CN(C4CCC(=O)NC4=O)C5=O)c(O)c3)CC2)cc1Cl (stereo not shown) [KT-020] |
| < 3.04 |  |  | CC(=O)c1ccc(N2CCN(Cc3ccc(C(=O)NCc4ccc5c(c4)CN(C4CCC(=O)NC4=O)C5=O)cc3)CC2)cc1Cl (stereo not shown) [KT-041] |
| 3.45 ± 0.52 |  |  | CN(Cc1ccc(C(=O)NCc2ccc3c(c2)CN(C2CCC(=O)NC2=O)C3=O)cc1)CC(O)c1ccccc1 (stereo not shown) [KT-013] |
| 6 ± 1.6 |  |  | O=C1CCC(N2Cc3cc(C(=O)NCc4ccc(CN(CCc5ccccc5)C(=O)CCO)cc4)ccc3C2=O)C(=O)N1 (stereo not shown) [KT-033] |
| 2.8 ± 0.1 |  |  | O=C1CCC(N2Cc3cc(CNC(=O)c4ccc(CN5CCN(c6ccc(OCCO)c(Cl)c6)CC5)cc4)ccc3C2=O)C(=O)N1 (stereo not shown) [KT-019] |
| 0.57 ± 0.1 |  |  | NCc1cc(-c2cccc3cccnc23)cnc1N1CCC(CC(=O)Nc2ccc3c(c2)CN(C2CCC(=O)NC2=O)C3=O)CC1 (stereo not shown) [KT-029] |
| 0.71 ± 0.04 |  |  | O=C1CCC(N2Cc3cc(C(=O)NCc4ccc(CN(CCO)CCc5cccc6ccccc56)cc4)ccc3C2=O)C(=O)N1 (stereo not shown) [KT-003] |
| < 0.34 |  |  | O=C1CCC(N2Cc3cc(NC(=O)CC4CCN(c5ncc(-c6cccc7cccnc67)cc5OCCO)CC4)ccc3C2=O)C(=O)N1 (stereo not shown) [KT-031] |
| 10.5 ± 0.4 |  |  | O=C1CCC(N2Cc3cc(CNC(=O)c4ccc(CN5CCN(c6ccc(O)c(Cl)c6)CC5)cc4)ccc3C2=O)C(=O)N1 (stereo not shown) [KT-017] |
| < 0.34 |  |  | O=C1CCC(N2Cc3cc(NC(=O)CC4CCN(c5ncc(-c6cccc7cccnc67)cc5CO)CC4)ccc3C2=O)C(=O)N1 (stereo not shown) [KT-028] |
| < 3.04 | completely degrade | completely degrade | O=C1CCC(N2Cc3cc(C(=O)NCc4ccc(CN(CCO)CCc5ccc(Cl)c(Cl)c5)cc4)ccc3C2=O)C(=O)N1 (stereo not shown) [KT-002] |
| < 3.04 |  |  | O=C1CCC(N2Cc3cc(C(=O)NCc4ccc(CN(CCO)CCc5ccccc5)cc4)ccc3C2=O)C(=O)N1 (stereo not shown) [KT-001] |
| 2.17 ± 0.78 |  |  | O=C1CCC(N2Cc3cc(CNC(=O)c4ccc(CN5CCN(c6ccc(CO)c(Cl)c6)CC5)cc4)ccc3C2=O)C(=O)N1 (stereo not shown) [KT-018] |
| < 3.04 |  |  | O=C1CCC(N2Cc3cc(C(=O)NCc4ccc(CNCCc5cccc6ccccc56)cc4)ccc3C2=O)C(=O)N1 (stereo not shown) [KT-025] |
| < 0.34 |  |  | O=C1CCC(N2Cc3cc(NC(=O)CC4CCN(c5ncc(-c6nccc7ccccc67)cc5CO)CC4)ccc3C2=O)C(=O)N1 (stereo not shown) [KT-030] |
| 3.04 ± 0.84 |  |  | O=C1CCC(N2Cc3cc(C(=O)NCc4ccc(CN(Cc5ccccc5)C(=O)CO)cc4)ccc3C2=O)C(=O)N1 (stereo not shown) [KT-016] |
| 24.2 ± 10.1 |  |  | O=C1CCC(N2Cc3cc(C(=O)NCc4ccc(CN(CCc5ccccc5)C(=O)NCCO)cc4)ccc3C2=O)C(=O)N1 (stereo not shown) [KT-015] |
| 5620 |  |  | NCCOc1cc(-c2cccc3cccnc23)cnc1N1CCC(CC(=O)Nc2ccc3c(c2)CN(C2CCC(=O)NC2=O)C3=O)CC1 (stereo not shown) [KT-032] |
